Experimental data as given in patent publication US20250195521A1 (Revolution Medicines, Inc., priority 2020, published 2025).

Columns and labels:
AsPC-1 (K-Ras G12D) = experiment: CellTiter-Glo cell viability assay, AsPC-1; assay type: cell-based, human; settings: Homo sapiens, ASPC1, 120 h; K-Ras G12D, 5-day treatment; read-out: AsPC-1 Cell Viability IC50
Description: Note—The following protocol describes a procedure for monitoring cell viability of K-Ras mutant cancer cell lines in response to a compound of the invention. Other RAS isoforms may be employed, though the number of cells to be seeded will vary based on cell line used.
Test compounds (132.5 nL) were directly dispensed into the assay plates containing cells. […] On day 5, assay plates and their contents were equilibrated to room temperature for approximately 30 minutes. […] Luminescence was measured using the PerkinElmer Enspire. Data were normalized by the following: (Sample signal/Avg. DMSO)*100. The data were fit using a four-parameter logistic fit.

[1] = test system: NCI-H358 cells (K-Ras G12C); experiment: CellTiter-Glo cell viability, NCI-H358; assay type: cell-based, human; settings: Homo sapiens, NCI-H358, 120 h, K-Ras G12C, 5-day treatment; read-out: H358 Cell Viability IC50
Summary of the method: (§1)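 Viability is read as luminescence after five days of compound exposure, with plates first equilibrated to room temperature for roughly 30 minutes. Each signal is expressed as a percentage of the mean DMSO control, and curves are fitted by four-parameter logistic regression.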

[2] = test system: Capan-1 cells (K-Ras G12V); experiment: CellTiter-Glo cell viability, Capan-1; assay type: cell-based, human; settings: Homo sapiens, CAPAN-1, 120 h, K-Ras G12V, 5-day treatment; read-out: Capan-1 Cell Viability IC50
Summary of the method: as §1

KRAS G12C = KRAS G12C (Homo sapiens (Human), UniProt P01116+P62937, G12C); experiment: Ras-Raf disruption/FRET/MOA assay (BRAF RBD, Cyclophilin A); assay type: biochemical; settings: read-out: KRAS G12C FRET IC50
Chain of KRAS G12C (P01116-2 other isoform, or with tags, fused parts or gaps G12C): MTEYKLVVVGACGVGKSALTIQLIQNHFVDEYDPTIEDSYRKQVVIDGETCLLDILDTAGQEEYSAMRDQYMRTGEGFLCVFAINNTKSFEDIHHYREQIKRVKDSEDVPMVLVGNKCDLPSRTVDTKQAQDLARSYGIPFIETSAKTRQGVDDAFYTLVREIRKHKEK
Chain of KRAS G12C (P62937 whole entry): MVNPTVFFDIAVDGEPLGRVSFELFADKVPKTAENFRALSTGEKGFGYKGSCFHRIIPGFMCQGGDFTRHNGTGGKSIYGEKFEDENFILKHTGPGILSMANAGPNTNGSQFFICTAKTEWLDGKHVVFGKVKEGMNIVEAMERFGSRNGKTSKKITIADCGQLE
Summary of the method: (§2)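 His6-K-Ras-GMPPNP (12.5 nM), GST-BRAF RBD (50 nM) and tagless Cyclophilin A (25 μM) were combined in 25 mM HEPES pH 7.3 with 100 mM NaCl, 5 mM MgCl2, 0.1% BSA and 0.002% Tween20, with compound as a 10-point 3-fold series from 30 μM final, then incubated 3 h at 25° C.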

KRAS G12D = KRAS G12D (Homo sapiens (Human), UniProt P01116+P62937, G12D); experiment: as above; assay type: biochemical; settings: read-out: KRAS G12D FRET IC50
Chain of KRAS G12D (P01116 other isoform, or with tags, fused parts or gaps G12D): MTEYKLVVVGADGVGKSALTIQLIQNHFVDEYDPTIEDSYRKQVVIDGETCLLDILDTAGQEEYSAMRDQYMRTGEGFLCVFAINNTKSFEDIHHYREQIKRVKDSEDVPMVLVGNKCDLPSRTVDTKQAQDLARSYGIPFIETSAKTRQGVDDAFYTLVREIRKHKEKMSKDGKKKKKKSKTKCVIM
Chain of KRAS G12D (P62937 whole entry): as the sequence (P62937 whole entry) above
Summary of the method: as §2

KRAS G12S = KRAS G12S (Homo sapiens (Human), UniProt P01116+P62937, G12S); experiment: as above; assay type: biochemical; settings: read-out: KRAS G12S FRET IC50
Chain of KRAS G12S (P01116 other isoform, or with tags, fused parts or gaps G12S): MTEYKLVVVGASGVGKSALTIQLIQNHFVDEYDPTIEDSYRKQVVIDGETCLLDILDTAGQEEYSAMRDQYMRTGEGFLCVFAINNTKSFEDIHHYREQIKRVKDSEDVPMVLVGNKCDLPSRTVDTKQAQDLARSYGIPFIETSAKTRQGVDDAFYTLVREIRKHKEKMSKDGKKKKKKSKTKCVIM
Chain of KRAS G12S (P62937 whole entry): as the sequence (P62937 whole entry) above
Summary of the method: as §2

KRAS G12V = KRAS G12V (Homo sapiens (Human), UniProt P01116+P62937, G12V); experiment: as above; assay type: biochemical; settings: read-out: KRAS G12V FRET IC50
Chain of KRAS G12V (P01116 other isoform, or with tags, fused parts or gaps G12V): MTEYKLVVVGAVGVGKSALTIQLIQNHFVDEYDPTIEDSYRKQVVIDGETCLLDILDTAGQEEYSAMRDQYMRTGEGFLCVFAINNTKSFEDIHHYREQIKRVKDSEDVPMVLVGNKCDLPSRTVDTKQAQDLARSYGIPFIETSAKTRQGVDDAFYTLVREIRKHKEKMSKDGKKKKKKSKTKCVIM
Chain of KRAS G12V (P62937 whole entry): as the sequence (P62937 whole entry) above
Summary of the method: as §2

KRAS G13C = KRAS G13C (Homo sapiens (Human), UniProt P01116+P62937, G13C); experiment: as above; assay type: biochemical; settings: read-out: KRAS G13C FRET IC50
Chain of KRAS G13C (P01116 other isoform, or with tags, fused parts or gaps G13C): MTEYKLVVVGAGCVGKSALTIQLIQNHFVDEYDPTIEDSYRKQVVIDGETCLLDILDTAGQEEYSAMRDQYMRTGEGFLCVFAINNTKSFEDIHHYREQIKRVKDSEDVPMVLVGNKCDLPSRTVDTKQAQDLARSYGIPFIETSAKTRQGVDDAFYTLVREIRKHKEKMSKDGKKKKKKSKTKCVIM
Chain of KRAS G13C (P62937 whole entry): as the sequence (P62937 whole entry) above
Summary of the method: as §2

KRAS G13D = KRAS G13D (Homo sapiens (Human), UniProt P01116+P62937, G13D); experiment: as above; assay type: biochemical; settings: read-out: KRAS G13D FRET data IC50
Chain of KRAS G13D (P01116 other isoform, or with tags, fused parts or gaps G13D): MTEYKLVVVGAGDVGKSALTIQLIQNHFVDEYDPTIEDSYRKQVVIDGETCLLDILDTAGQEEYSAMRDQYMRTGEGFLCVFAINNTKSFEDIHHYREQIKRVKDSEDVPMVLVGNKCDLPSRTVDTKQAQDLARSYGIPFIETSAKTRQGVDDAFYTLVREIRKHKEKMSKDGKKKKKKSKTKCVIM
Chain of KRAS G13D (P62937 whole entry): as the sequence (P62937 whole entry) above
Summary of the method: as §2

KRAS Q61H = KRAS Q61H (Homo sapiens (Human), UniProt P01116+P62937, Q61H); experiment: as above; assay type: biochemical
Chain of KRAS Q61H (P01116 other isoform, or with tags, fused parts or gaps Q61H): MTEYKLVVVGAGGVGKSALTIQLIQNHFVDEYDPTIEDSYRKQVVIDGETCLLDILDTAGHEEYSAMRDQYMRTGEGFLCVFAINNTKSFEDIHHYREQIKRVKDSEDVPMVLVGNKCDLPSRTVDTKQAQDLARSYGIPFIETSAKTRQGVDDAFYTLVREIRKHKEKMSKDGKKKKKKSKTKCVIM
Chain of KRAS Q61H (P62937 whole entry): as the sequence (P62937 whole entry) above
Summary of the method: as §2

KRAS WT = KRAS WT (Homo sapiens (Human), UniProt P01116+P62937); experiment: as above; assay type: biochemical; settings: read-out: KRAS WT FRET data IC50
Chain of KRAS WT (P01116 other isoform, or with tags, fused parts or gaps): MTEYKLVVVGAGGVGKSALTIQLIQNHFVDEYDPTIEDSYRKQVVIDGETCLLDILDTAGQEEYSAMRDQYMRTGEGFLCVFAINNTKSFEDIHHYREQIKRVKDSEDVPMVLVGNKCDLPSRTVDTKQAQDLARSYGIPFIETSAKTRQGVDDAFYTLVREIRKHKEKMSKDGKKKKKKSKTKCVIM
Chain of KRAS WT (P62937 whole entry): as the sequence (P62937 whole entry) above
Summary of the method: as §2

NRAS G12C = NRAS G12C (Homo sapiens (Human), UniProt P01111+P62937, G12C); experiment: as above; assay type: biochemical; settings: read-out: NRAS G12C FRET data IC50
Chain of NRAS G12C (P01111 whole entry G12C): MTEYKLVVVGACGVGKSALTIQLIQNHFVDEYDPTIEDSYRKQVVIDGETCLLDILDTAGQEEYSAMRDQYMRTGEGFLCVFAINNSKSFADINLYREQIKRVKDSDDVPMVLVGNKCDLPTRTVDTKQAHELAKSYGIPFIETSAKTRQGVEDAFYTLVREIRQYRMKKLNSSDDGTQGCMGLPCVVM
Chain of NRAS G12C (P62937 whole entry): as the sequence (P62937 whole entry) above
Summary of the method: (§3)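 TR-FRET read after 1.5 h with 10 nM anti-His Eu-W1024 and 50 nM anti-GST APC, following 3 h at 25 °C of GMPPNP-loaded His6-Ras (12.5 nM), GST-BRAF RBD (50 nM) and Cyclophilin A (25 μM) with compound from 30 μM final, 10 points, 3-fold. IC50 reported; pH 7.3 HEPES, 100 mM NaCl.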

NRAS Q61K = NRAS Q61K (Homo sapiens (Human), UniProt P01111+P62937, Q61K); experiment: as above; assay type: biochemical
Chain of NRAS Q61K (P01111 whole entry Q61K): as the sequence (P01111 whole entry G12C) above, with C12G, Q61K counted along it
Chain of NRAS Q61K (P62937 whole entry): as the sequence (P62937 whole entry) above
Summary of the method: as §3

NRAS Q61R = NRAS Q61R (Homo sapiens (Human), UniProt P01111+P62937, Q61R); experiment: as above; assay type: biochemical
Chain of NRAS Q61R (P01111 whole entry Q61R): as the sequence (P01111 whole entry G12C) above, with C12G, Q61R counted along it
Chain of NRAS Q61R (P62937 whole entry): as the sequence (P62937 whole entry) above
Summary of the method: as §3

NRAS WT = NRAS WT (Homo sapiens (Human), UniProt P01111+P62937); experiment: as above; assay type: biochemical
Chain of NRAS WT (P01111 whole entry): as the sequence (P01111 whole entry G12C) above, with C12G counted along it
Chain of NRAS WT (P62937 whole entry): as the sequence (P62937 whole entry) above
Summary of the method: as §3

NCI-H358 (K-Ras G12C) = experiment: CellTiter-Glo cell viability assay, NCI-H358; assay type: cell-based, human; settings: Homo sapiens, NCI-H358, 120 h, 5-day treatment; read-out: H358 Cell Viability assay data (K-Ras G12C, IC50)
Summary of the method: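 Viability is measured as ATP-dependent luminescence (CellTiter-Glo) five days into compound treatment. Responses are normalized to vehicle (DMSO) wells and fitted by four-parameter logistic regression.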

[3] = target: K-Ras G12C(GMP-PNP) binding to BRAF RBD (Homo sapiens (Human), UniProt P01116+P62937, G12C); experiment: Disruption of BRAF RBD interaction with K-Ras (FRET / MOA assay), K-Ras G12C; assay type: biochemical; settings: read-out: KRAS G12C FRET IC50
Chain of K-Ras G12C(GMP-PNP) binding to BRAF RBD (P01116 other isoform, or with tags, fused parts or gaps G12C): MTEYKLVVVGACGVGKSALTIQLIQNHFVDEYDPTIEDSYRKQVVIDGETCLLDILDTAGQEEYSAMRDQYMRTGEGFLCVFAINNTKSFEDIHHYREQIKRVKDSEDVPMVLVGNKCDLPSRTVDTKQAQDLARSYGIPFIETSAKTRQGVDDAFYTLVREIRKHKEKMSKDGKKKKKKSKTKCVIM
Chain of K-Ras G12C(GMP-PNP) binding to BRAF RBD (P62937 whole entry): as the sequence (P62937 whole entry) above
Summary of the method: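 Cpd 10-pt 3-fold dilution, top 30 μM final; Ras/CypA/BRAF RBD mix 3 h, 25° C. Add anti-His Eu-W1024 10 nM + anti-GST APC 50 nM final, 1.5 h. Readout TR-FRET ratio decrease vs DMSO → IC50.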

Compound	IC50 [1] [µM]	IC50 (KRAS G12C) [µM]	IC50 (KRAS G12D) [µM]	IC50 (KRAS G12S) [µM]	IC50 (KRAS G12V) [µM]	IC50 (KRAS G13C) [µM]	IC50 (KRAS G13D) [µM]	IC50 (KRAS Q61H) [µM]	IC50 (KRAS WT) [µM]	IC50 (NRAS G12C) [µM]	IC50 (NRAS Q61K) [µM]	IC50 (NRAS Q61R) [µM]	IC50 (NRAS WT) [µM]	IC50 (NCI-H358 (K-Ras G12C)) [µM]	IC50 [3] [µM]	IC50 (AsPC-1 (K-Ras G12D)) [µM]	IC50 [2] [µM]
CCn1c(-c2cccnc2[C@H](C)OC)c2c3cc(ccc31)-c1cc(O)cc(c1)C[C@H](NC(=O)[C@H](C(C)C)N(C)C(=O)N1CCN(C(=O)[C@@H]3CN3)C(=O)C1)C(=O)N1CCC[C@H](N1)C(=O)OCC(C)(C)C2 (atropisomer, axis not shown) [Example 194]	–	–	–	–	–	–	–	–	–	–	–	–	–	–	–	> 10	–
CCn1c(-c2cccnc2[C@H](C)OC)c2c3cc(ccc31)-c1csc(n1)C[C@H](NC(=O)[C@H](C(C)C)N(C)C(=O)N(C)[C@H]1CCN(C)C1)C(=O)N1CCC[C@H](N1)C(=O)OCC(C)(C)C2 [Compound A563]	0.01 to 0.1	0.1 to 1	0.1 to 1	0.1 to 1	1 to 10	0.1 to 1	0.1 to 1	0.01 to 0.1	0.1 to 1	0.1 to 1	0.1 to 1	0.1 to 1	0.1 to 1	0.1 to 1	0.1 to 1	–	0.01 to 0.1
CCn1c(-c2cccnc2[C@H](C)OC)c2c3cc(ccc31)-c1csc(n1)C[C@H](NC(=O)[C@H](C(C)C)N(C)C(=O)N1C[C@H]3CCN(C)[C@H]3C1)C(=O)N1CCC[C@H](N1)C(=O)OCC(C)(C)C2 [Compound A568]	0.01 to 0.1	0.1 to 1	0.1 to 1	0.1 to 1	0.1 to 1	0.1 to 1	0.1 to 1	0.1 to 1	0.1 to 1	0.1 to 1	0.1 to 1	0.1 to 1	0.1 to 1	0.01 to 0.1	0.01 to 0.1	–	0.1 to 1
CCn1c(-c2cccnc2[C@H](C)OC)c2c3cc(ccc31)-c1csc(n1)C[C@H](NC(=O)[C@H](C(C)C)N(C)C(=O)N(C)[C@H]1CCCN(C)C1)C(=O)N1CCC[C@H](N1)C(=O)OCC(C)(C)C2 [Compound A588]	0.01 to 0.1	0.1 to 1	0.1 to 1	0.1 to 1	1 to 10	0.1 to 1	0.1 to 1	0.1 to 1	0.1 to 1	0.1 to 1	0.1 to 1	1 to 10	0.1 to 1	0.01 to 0.1	0.1 to 1	–	0.1 to 1
CCn1c(-c2cccnc2[C@H](C)OC)c2c3cc(ccc31)-c1cc(O)cc(c1)C[C@H](NC(=O)[C@H](C(C)C)N(C)C(=O)N1CCN(C(=O)[C@H]3CN3)C(=O)C1)C(=O)N1CCC[C@H](N1)C(=O)OCC(C)(C)C2 [Example 143]	–	–	–	–	–	–	–	–	–	–	–	–	–	–	–	> 10	–

Further lines, with some results ahead:

IC50 [1] [µM]	IC50 (KRAS G12C) [µM]	IC50 (KRAS G12D) [µM]	IC50 (KRAS G12S) [µM]	IC50 (KRAS G12V) [µM]	IC50 (KRAS G13C) [µM]	IC50 (KRAS G13D) [µM]	IC50 (KRAS Q61H) [µM]	IC50 (KRAS WT) [µM]	IC50 (NRAS G12C) [µM]	IC50 (NRAS Q61K) [µM]	IC50 (NRAS Q61R) [µM]	IC50 (NRAS WT) [µM]	IC50 (NCI-H358 (K-Ras G12C)) [µM]	IC50 [3] [µM]	Compound	IC50 (AsPC-1 (K-Ras G12D)) [µM]	IC50 [2] [µM]
1 to 10	0.1 to 1	1 to 10	1 to 10	0.1 to 1	0.1 to 1	1 to 10	0.1 to 1	1 to 10	0.1 to 1	0.1 to 1	1 to 10	0.1 to 1	0.01 to 0.1	0.01 to 0.1	CCn1c(-c2cccnc2[C@H](C)OC)c2c3cc(ccc31)-c1csc(n1)C[C@H](NC(=O)[C@@H]1CCO1)C(=O)N1CCC[C@H](N1)C(=O)OCC(C)(C)C2 [Compound A359]	–	1 to 10
0.1 to 1	0.1 to 1	1 to 10	0.1 to 1	1 to 10	0.1 to 1	1 to 10	0.1 to 1	0.1 to 1	0.1 to 1	1 to 10	1 to 10	0.1 to 1	0.1 to 1	0.1 to 1	CCn1c(-c2cccnc2[C@H](C)OC)c2c3cc(ccc31)-c1csc(n1)C[C@H](NC(=O)[C@H](C(C)C)N(C)C(=O)N1CC[C@H]1CN(C)C)C(=O)N1CCC[C@H](N1)C(=O)OCC(C)(C)C2 [Compound A508]	–	0.1 to 1
0.1 to 1	0.1 to 1	1 to 10	1 to 10	1 to 10	0.1 to 1	1 to 10	0.1 to 1	0.1 to 1	0.1 to 1	0.1 to 1	1 to 10	0.1 to 1	0.01 to 0.1	0.1 to 1	CCn1c(-c2cccnc2[C@H](C)OC)c2c3cc(ccc31)-c1csc(n1)C[C@H](NC(=O)[C@H](C(C)C)N(C)C(=O)N1CCN(C)[C@@H](c3ccccc3)C1)C(=O)N1CCC[C@H](N1)C(=O)OCC(C)(C)C2 [Compound A524]	–	0.1 to 1
